Experiments:
[1] = Cytotoxicity against rat H4G1.1c3 cells at 10 to 50 uM after 24 hr; assay type: cell-based
[2] = target: T1, Aryl hydrocarbon receptor (Homo sapiens, UniProt P35869); test: Binding affinity to aryl hydrocarbon receptor in Homo sapiens (human) Hep3B cells assessed as upregulation of DRE-driven luciferase expression at 10 uM after 6 hr by Western blot analysis; assay type: cell-based; settings: hep 3b2, 6 h
T1 sequence (P35869 whole entry): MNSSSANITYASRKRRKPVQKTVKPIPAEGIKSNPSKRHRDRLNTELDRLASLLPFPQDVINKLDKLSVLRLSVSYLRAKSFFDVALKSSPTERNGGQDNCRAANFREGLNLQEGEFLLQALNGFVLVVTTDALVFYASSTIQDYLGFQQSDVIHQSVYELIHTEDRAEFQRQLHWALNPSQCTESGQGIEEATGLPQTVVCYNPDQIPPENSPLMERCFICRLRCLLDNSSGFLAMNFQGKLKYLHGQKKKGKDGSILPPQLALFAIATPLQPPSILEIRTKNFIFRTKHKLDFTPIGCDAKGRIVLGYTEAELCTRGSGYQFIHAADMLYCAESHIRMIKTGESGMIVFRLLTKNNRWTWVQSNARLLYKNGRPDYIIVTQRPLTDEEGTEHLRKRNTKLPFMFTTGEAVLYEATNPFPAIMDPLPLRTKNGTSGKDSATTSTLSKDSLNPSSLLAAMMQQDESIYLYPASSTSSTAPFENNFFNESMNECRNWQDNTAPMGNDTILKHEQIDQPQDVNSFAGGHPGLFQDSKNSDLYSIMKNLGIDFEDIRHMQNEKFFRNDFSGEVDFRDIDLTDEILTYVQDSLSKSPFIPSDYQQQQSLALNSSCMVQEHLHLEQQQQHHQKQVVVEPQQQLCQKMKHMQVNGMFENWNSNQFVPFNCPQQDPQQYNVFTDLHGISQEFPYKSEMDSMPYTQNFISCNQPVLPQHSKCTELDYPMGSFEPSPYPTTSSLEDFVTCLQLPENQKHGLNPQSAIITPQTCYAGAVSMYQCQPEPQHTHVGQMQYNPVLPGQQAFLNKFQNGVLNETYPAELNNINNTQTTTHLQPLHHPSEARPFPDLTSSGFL

[3] = target: T1, Aryl hydrocarbon receptor; test: Binding affinity to full length N-terminal GFP-fused Homo sapiens (human) aryl hydrocarbon receptor ligand binding domain (848 amino acid residues) expressed in baculovirus infected Sf9 cells assessed as fluorescence quenching at 10 uM after 5 min by fluorescence microscopic analysis; settings: sf9, 5 min
[4] = target: T1, Aryl hydrocarbon receptor; test: Competitive binding affinity to aryl hydrocarbon receptor in Homo sapiens (human) Hep3B cells assessed as effect on betaNF-mediated DRE-driven luciferase expression at 10 uM after 6 hr by Western blot analysis relative to control; assay type: cell-based; settings: hep 3b2, 6 h
[5] = target: T1, Aryl hydrocarbon receptor; test: Binding affinity to full length N-terminal GFP-fused Homo sapiens (human) aryl hydrocarbon receptor ligand binding domain (848 amino acid residues) expressed in baculovirus infected Sf9 cells assessed as fluorescence quenching at 10 uM after 10 min by fluorescence microscopic analysis; settings: sf9, 10 min
[6] = target: T2, Aryl hydrocarbon receptor (Rattus norvegicus, UniProt P41738); test: Partial agonist activity at DRE-driven GFP-fused AhR ligand binding domain in rat H4G1.1c3 cells assessed as induction of DRE-driven GFP expression at 50 uM after 48 hr by fluorescence assay; assay type: cell-based
T2 sequence (P41738 whole entry): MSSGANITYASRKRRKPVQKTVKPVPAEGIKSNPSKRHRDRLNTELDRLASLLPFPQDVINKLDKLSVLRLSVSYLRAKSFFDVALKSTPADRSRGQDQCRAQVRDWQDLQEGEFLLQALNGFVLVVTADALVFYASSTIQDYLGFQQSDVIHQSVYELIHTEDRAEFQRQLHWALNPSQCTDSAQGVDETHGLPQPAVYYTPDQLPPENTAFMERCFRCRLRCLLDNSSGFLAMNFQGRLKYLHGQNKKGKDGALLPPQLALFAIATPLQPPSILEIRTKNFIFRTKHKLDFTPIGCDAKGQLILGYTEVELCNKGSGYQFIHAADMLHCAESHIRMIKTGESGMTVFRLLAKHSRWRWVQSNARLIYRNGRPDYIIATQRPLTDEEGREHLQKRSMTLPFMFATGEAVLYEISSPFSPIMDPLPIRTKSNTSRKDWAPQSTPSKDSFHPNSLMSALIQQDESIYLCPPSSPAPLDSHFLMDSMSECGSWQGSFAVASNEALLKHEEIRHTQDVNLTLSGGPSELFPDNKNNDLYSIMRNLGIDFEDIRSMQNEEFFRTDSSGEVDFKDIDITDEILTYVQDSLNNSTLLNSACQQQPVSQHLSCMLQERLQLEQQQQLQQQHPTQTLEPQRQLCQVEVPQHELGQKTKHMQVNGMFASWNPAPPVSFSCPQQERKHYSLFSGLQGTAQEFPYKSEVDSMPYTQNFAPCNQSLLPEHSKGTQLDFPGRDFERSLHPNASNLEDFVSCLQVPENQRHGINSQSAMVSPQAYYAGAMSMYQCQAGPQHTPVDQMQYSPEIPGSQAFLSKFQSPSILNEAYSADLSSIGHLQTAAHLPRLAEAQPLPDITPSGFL

[7] = target: T1, Aryl hydrocarbon receptor; test: Binding affinity to full length N-terminal GFP-fused Homo sapiens (human) aryl hydrocarbon receptor ligand binding domain (848 amino acid residues) expressed in baculovirus infected Sf9 cells assessed as fluorescence quenching at 10 uM up to 30 min by fluorescence microscopic analysis; settings: sf9, 0.5 h
[8] = target: T1, Aryl hydrocarbon receptor; test: Binding affinity to aryl hydrocarbon receptor in Homo sapiens (human) Hep3B cells assessed as upregulation of DRE-driven luciferase expression at 10 uM after 6 hr by Western blot analysis relative to control; assay type: cell-based, Hep 3B2; settings: Hep3B cells with DRE-driven luciferase reporter, read-out: FC
[9] = target: T1, Aryl hydrocarbon receptor; test: Competitive binding affinity to aryl hydrocarbon receptor in Homo sapiens (human) Hep3B cells assessed as supression of betaNF-mediated DRE-driven luciferase expression at 10 uM after 6 hr by Western blot analysis relative to control; assay type: cell-based; settings: hep 3b2, 6 h
[10] = target: T1, Aryl hydrocarbon receptor; test: (§1) Competitive binding affinity to full length N-terminal GFP-fused Homo sapiens (human) aryl hydrocarbon receptor ligand binding domain (848 amino acid residues) expressed in baculovirus infected Sf9 cells assessed as reversal of betaNFQ-mediated fluorescence quenching at 5 uM measured at 5 min by fluorescence microscopic analysis; settings: sf9, 5 min
[11] = target: T1, Aryl hydrocarbon receptor; test: as §1, with “4-((4-(dimethylamino)phenyl)diazenyl)-N-(2-(2-(2-(2-hydroxyethoxy)ethoxy)ethoxy)ethyl)benzamide4-((4-(dimethylamino)phenyl)diazenyl)-N-(2-(2-(2-(2-hydroxyethoxy)ethoxy)ethoxy)ethyl)benzamide-mediated” for “betaNFQ-mediated”; settings: sf9, 5 min
[12] = target: T2, Aryl hydrocarbon receptor; test: Agonist activity at DRE-driven GFP-fused AhR ligand binding domain in rat H4G1.1c3 cells assessed as induction of DRE-driven GFP expression at 10 uM after 48 hr by fluorescence assay; assay type: cell-based

| SMILES | Activity [1] | Activity [3] [%] | Activity [5] [%] | Activity [6] | fold induction at 6 h, 10 µM [8] | also measured |
| --- | --- | --- | --- | --- | --- | --- |
| CN(C)c1ccc(/N=N/c2ccc(C(=O)NCCOCCOCCOCCOCCOCCOCCOCCOCc3ccc(-c4cc(=O)c5c(ccc6ccccc65)o4)cc3)cc2)cc1 | Toxic |  |  |  |  |  |
| CN(C)c1ccc(/N=N/c2ccc(C(=O)NCCOCCOCCOCCO)cc2)cc1 |  | 13 | 16 | Not Active |  | Activity [2]: Not Active; Activity [4]: Not Active |
| CN(C)c1ccc(/N=N/c2ccc(C(=O)NCCOCCOCCOCCOCc3ccc(-c4cc(=O)c5c(ccc6ccccc65)o4)cc3)cc2)cc1 | Non-toxic | 18 | 24 | Active | 14 | Activity [7]: 29%; fold change (FC) [9]: 23 |
| Cc1ccc2cc3c(ccc4ccccc43)c3c2c1CC3 [3-METHYLCHOLANTHRENE] |  |  |  |  |  | Activity [10]: Active; Activity [11]: Not Active |
| O=c1cc(-c2ccccc2)oc2ccc3ccccc3c12 [BETA-NAPHTHOFLAVONE] |  |  |  |  | 75 | Activity [12]: Active |

— ChEMBL document CHEMBL3045382, “Synthesis of a ligandquencher conjugate for the ligand binding study of the aryl hydrocarbon receptor using a FRET assay” (Med Chem Res, 2012)
